The values that follow are results of earlier work, collected in PubChem BioAssay AID1259409 (Chemical Carcinogenesis Research Information System (CCRIS), 2018).

The test system of the data set is rodent chemically induced tumor inhibition, incidence and multiplicity. Put plainly: CCRIS tumor inhibitor studies.

Structures are written as SMILES.

For the compound `CCO`, the “tumour outcome (control, treated, inhibition, significance)” value (Carcinogen: ETHYL CARBAMATE, 51-79-6, Dose [Inhibitor]: 0, 20% SIMULTANEOUSLY WITH CARCINOGEN 1/D FOR WK (STUDY DURATION: 16 WK), Route [Inhibitor]: GAVAGE, Species: MOUSE, Strain/Sex: NMRI/FEMALE, Target Tissue: Type of Lesion: LUNG: ADENOMA, Dose [Carcinogen]: 180 MG/KG IN 20% ETHANOL 1/D FOR 8 WK (CONTROL GROUP ADMINISTERED CARCINOGEN IN WATER), Promoter: NONE USED) is 100%, 100%, 0%, not significant; the “tumour outcome (control, treated, inhibition, significance)” value (Carcinogen: ETHYL CARBAMATE, 57-79-6, Dose [Inhibitor]: 0, 12% ADMINISTERED WITH CARCINOGEN IN DRINKING WATER FOR 41 WK (STUDY DURATION: 41 WK), Route [Inhibitor]: ORAL, Species: MOUSE, Strain/Sex: C3H/MALE, Target Tissue: Type of Lesion: LIVER: HEMANGIOENDOTHELIOMA, Dose [Carcinogen]: 10 MG/KG IN DRINKING WATER FOR 41 WK, Promoter: NONE USED) was 5%, 5%, 0%, not significant; the “tumour outcome (control, treated, inhibition, significance)” value (Carcinogen: N-METHYL-N'-NITRO-N-NITROSOGUANIDINE, 70-25-7, Dose [Inhibitor]: 0, 10% IN DRINKING WATER FOR 51 WK BEGINNING 1 WK POST CARCINOGEN DOSE, 5% NACL INCLUDED IN THE DIET OF TREATED RATS (ST, Route [Inhibitor]: ORAL, Species: RAT, Strain/Sex: F344/MALE, Target Tissue: Type of Lesion: FORESTOMACH: CARCINOMA IN SITU, Dose [Carcinogen]: 150 MG/KG BW ONCE, Promoter: CATECHOL, 120-89-9) was 3/15 (20%), 5/14 (36%), -80%, not significant; the “tumour outcome (control, treated, inhibition, significance)” value (Carcinogen: N-METHYL-N'-NITRO-N-NITROSOGUANIDINE, 70-25-7, Dose [Inhibitor]: 0, 10% IN DRINKING WATER FOR 51 WK BEGINNING 1 WK POST CARCINOGEN DOSE, 5% NACL INCLUDED IN THE DIET OF TREATED RATS (ST, Route [Inhibitor]: ORAL, Species: RAT, Strain/Sex: F344/MALE, Target Tissue: Type of Lesion: FORESTOMACH: PAPILLOMA, Dose [Carcinogen]: 150 MG/KG BW ONCE, Promoter: CATECHOL, 120-80-9) is given as 15/15 (100%), 12/14 (86%), 14%, not significant; the “tumour outcome (control, treated, inhibition, significance)” value (Carcinogen: N-METHYL-N'-NITRO-N-NITROSOGUANIDINE, 70-25-7, Dose [Inhibitor]: 0, 10% IN DRINKING WATER FOR 51 WK BEGINNING 1 WK POST CARCINOGEN DOSE, 5% NACL INCLUDED IN THE DIET OF TREATED RATS (ST, Route [Inhibitor]: ORAL, Species: RAT, Strain/Sex: F344/MALE, Target Tissue: Type of Lesion: FORESTOMACH: SQUAMOUS CELL CARCINOMA, Dose [Carcinogen]: 150 MG/KG BW ONCE, Promoter: CATECHOL, 120-80-9) was 15/15 (100%), 8/14 (57%), 43%, p<0.01; the “tumour outcome (control, treated, inhibition, significance)” value (Carcinogen: N-METHYL-N'-NITRO-N-NITROSOGUANIDINE, 70-25-7, Dose [Inhibitor]: 0, 10% IN DRINKING WATER FOR 51 WK BEGINNING 1 WK POST CARCINOGEN DOSE, 5% NACL INCLUDED IN THE DIET OF TREATED RATS (ST, Route [Inhibitor]: ORAL, Species: RAT, Strain/Sex: F344/MALE, Target Tissue: Type of Lesion: GLANDULAR STOMACH: ADENOCARCINOMA, Dose [Carcinogen]: 150 MG/KG BW ONCE, Promoter: CATECHOL, 120-80-9) was 11/15 (73%), 4/14 (29%), 60%, p<0.02. The “tumour outcome (control, treated, inhibition, significance)” value runs as follows: (Carcinogen: N-METHYL-N'-NITRO-N-NITROSOGUANIDINE, 70-25-7, Dose [Inhibitor]: 0, 10% IN DRINKING WATER FOR 51 WK BEGINNING 1 WK POST CARCINOGEN DOSE, 5% NACL INCLUDED IN THE DIET OF TREATED RATS (ST, Route [Inhibitor]: ORAL, Species: RAT, Strain/Sex: F344/MALE, Target Tissue: Type of Lesion: GLANDULAR STOMACH: ADENOMA, Dose [Carcinogen]: 150 MG/KG BW ONCE, Promoter: CATECHOL, 120-80-9) 15/15 (100%), 13/14 (93%), 7%, not significant; (Carcinogen: N-NITROSOMETHYLBENZYLAMINE, 937-40-6, Dose [Inhibitor]: 1-2% IN LIQUID DIET ON DAY 1 AND INCREASING TO 7% BY DAY 8 OF AGENT TREATMENT AND CONTINUING FOR 12 WK (STUDY DURATION:, Route [Inhibitor]: ORAL, Species: RAT, Strain/Sex: SPRAGUE-DAWLEY/MALE, Target Tissue: Type of Lesion: ESOPHAGUS: PAPILLOMA, Dose [Carcinogen]: 2.5 MG/KG 3/WK FOR 3 WK BEGINNING THE LAST 3 WK OF AGENT TREATMENT, Promoter: NONE USED) 10/26 (38%), 3/13 (23%), 39%, p<0.01; (Carcinogen: URETHANE, 51-79-6, Dose [Inhibitor]: 5% (VOL/VOL) IN DRINKING WATER CONCURRENTLY WITH CARCINOGEN FOR 12 WK (STUDY DURATION: 12 WK), Route [Inhibitor]: ORAL, Species: MOUSE, Strain/Sex: A/PH/FEMALE, Target Tissue: Type of Lesion: LUNG: ADENOMA, Dose [Carcinogen]: 200 PPM IN DRINKING WATER FOR 12 WK, Promoter: NONE USED) 100%, 100%, 0%, not calculated; (Carcinogen: URETHANE, 51-79-6, Dose [Inhibitor]: 5% (VOL/VOL) IN DRINKING WATER CONCURRENTLY WITH CARCINOGEN FOR 12 WK (STUDY DURATION: 12 WK), Route [Inhibitor]: ORAL, Species: MOUSE, Strain/Sex: A/PH/FEMALE, Target Tissue: Type of Lesion: LUNG: ADENOMA, Dose [Carcinogen]: 500 PPM IN DRINKING WATER FOR 12 WK, Promoter: NONE USED) 100%, 100%, 0%, not calculated; (Carcinogen: URETHANE, 51-79-6, Dose [Inhibitor]: 5% (VOL/VOL) IN DRINKING WATER CONCURRENTLY WITH CARCINOGEN FOR 12 WK (STUDY DURATION: 12 WK), Route [Inhibitor]: ORAL, Species: MOUSE, Strain/Sex: A/PH/FEMALE, Target Tissue: Type of Lesion: LUNG: ADENOMA, Dose [Carcinogen]: 1000 PPM IN DRINKING WATER FOR 12 WK, Promoter: NONE USED) 100%, 100%, 0%, not calculated; (Carcinogen: URETHANE, 51-79-6, Dose [Inhibitor]: 10% (VOL/VOL) IN DRINKING WATER CONCURRENTLY WITH CARCINOGEN FOR 12 WK (STUDY DURATION: 12 WK), Route [Inhibitor]: ORAL, Species: MOUSE, Strain/Sex: A/PH/FEMALE, Target Tissue: Type of Lesion: LUNG: ADENOMA, Dose [Carcinogen]: 200 PPM IN DRINKING WATER FOR 12 WK, Promoter: NONE USED) 100%, 80%, 20%, p<0.001. Also, the “tumour outcome (control, treated, inhibition, significance)” value reads like this: (Carcinogen: URETHANE, 51-79-6, Dose [Inhibitor]: 10% (VOL/VOL) IN DRINKING WATER CONCURRENTLY WITH CARCINOGEN FOR 12 WK (STUDY DURATION: 12 WK), Route [Inhibitor]: ORAL, Species: MOUSE, Strain/Sex: A/PH/FEMALE, Target Tissue: Type of Lesion: LUNG: ADENOMA, Dose [Carcinogen]: 500 PPM IN DRINKING WATER FOR 12 WK, Promoter: NONE USED) 100%, 100%, 0%, not calculated; (Carcinogen: URETHANE, 51-79-6, Dose [Inhibitor]: 10% (VOL/VOL) IN DRINKING WATER CONCURRENTLY WITH CARCINOGEN FOR 12 WK (STUDY DURATION: 12 WK), Route [Inhibitor]: ORAL, Species: MOUSE, Strain/Sex: A/PH/FEMALE, Target Tissue: Type of Lesion: LUNG: ADENOMA, Dose [Carcinogen]: 1000 PPM IN DRINKING WATER FOR 12 WK, Promoter: NONE USED) 100%, 100%, 0%, not calculated; (Carcinogen: URETHANE, 51-79-6, Dose [Inhibitor]: 20% (VOL/VOL) IN DRINKING WATER CONCURRENTLY WITH CARCINOGEN FOR 12 WK (STUDY DURATION: 12 WK), Route [Inhibitor]: ORAL, Species: MOUSE, Strain/Sex: A/PH/FEMALE, Target Tissue: Type of Lesion: LUNG: ADENOMA, Dose [Carcinogen]: 200 PPM IN DRINKING WATER FOR 12 WK, Promoter: NONE USED) 100%, 100%, 0%, not calculated; (Carcinogen: URETHANE, 51-79-6, Dose [Inhibitor]: 20% (VOL/VOL) IN DRINKING WATER CONCURRENTLY WITH CARCINOGEN FOR 12 WK (STUDY DURATION: 12 WK), Route [Inhibitor]: ORAL, Species: MOUSE, Strain/Sex: A/PH/FEMALE, Target Tissue: Type of Lesion: LUNG: ADENOMA, Dose [Carcinogen]: 500 PPM IN DRINKING WATER FOR 12 WK, Promoter: NONE USED) 100%, 100%, 0%, not calculated; (Carcinogen: URETHANE, 51-79-6, Dose [Inhibitor]: 20% (VOL/VOL) IN DRINKING WATER CONCURRENTLY WITH CARCINOGEN FOR 12 WK (STUDY DURATION: 12 WK), Route [Inhibitor]: ORAL, Species: MOUSE, Strain/Sex: A/PH/FEMALE, Target Tissue: Type of Lesion: LUNG: ADENOMA, Dose [Carcinogen]: 1000 PPM IN DRINKING WATER FOR 12 WK, Promoter: NONE USED) 100%, 100%, 0%, not calculated.
